Measured values taken from the supplement of paper PMC10307832.

Experiments:
Experiment in all cases: relative viability (nuclei count vs DMSO), 5 days (fraction); higher = more cells survive
IPA-3 + Lapatinib = compound: C1=CC=C2C(=C1)C=CC(=C2SSC3=C(C=CC4=CC=CC=C43)O)O [IPA-3] + CS(=O)(=O)CCNCc1ccc(-c2ccc3ncnc(Nc4ccc(OCc5cccc(F)c5)c(Cl)c4)c3c2)o1 [Lapatinib] (partner 2 µM)
How it was run: (§1)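 Lung cancer cell lines in 1536-well plates were dosed by pin tool the day after seeding, either with one drug alone or with a fixed anchor-drug dose plus five library-drug doses (not always all listed) in √10 steps. After 5 days, cells were fixed and their nuclei stained in one step (final 0.05% Triton X-100, 1% formaldehyde, 1 ug/ml Hoechst), then counted on 4× images. Relative viability is the nuclei count in treated wells divided by that in vehicle wells. Values are medians of duplicate plates.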

IPA-3 + Foretinib = compound: C1=CC=C2C(=C1)C=CC(=C2SSC3=C(C=CC4=CC=CC=C43)O)O [IPA-3] + COc1cc2c(Oc3ccc(NC(=O)C4(C(=O)Nc5ccc(F)cc5)CC4)cc3F)ccnc2cc1OCCCN1CCOCC1 [Foretinib] (partner 0.25 µM)
How it was run: as §1

Doramapimod + Decitabine = compound: Cc1ccc(-n2nc(C(C)(C)C)cc2NC(=O)Nc2ccc(OCCN3CCOCC3)c3ccccc23)cc1 [Doramapimod] + Nc1ncn([C@H]2C[C@H](O)[C@@H](CO)O2)c(=O)n1 [Decitabine] (partner 2 µM)
How it was run: as §1

Doramapimod + Tozasertib = compound: Cc1ccc(-n2nc(C(C)(C)C)cc2NC(=O)Nc2ccc(OCCN3CCOCC3)c3ccccc23)cc1 [Doramapimod] + Cc1cc(Nc2cc(N3CCN(C)CC3)nc(Sc3ccc(NC(=O)C4CC4)cc3)n2)n[nH]1 [Tozasertib] (partner 0.1 µM)
How it was run: as §1

Cell Line | relative viability (IPA-3 + Lapatinib; first compound 0.2 µM) | relative viability (IPA-3 + Lapatinib; first compound 0.6325 µM) | relative viability (IPA-3 + Lapatinib; first compound 2 µM) | relative viability (IPA-3 + Lapatinib; first compound 6.325 µM) | relative viability (IPA-3 + Lapatinib; first compound 20 µM) | relative viability (IPA-3 + Foretinib; first compound 0.2 µM) | relative viability (IPA-3 + Foretinib; first compound 0.6325 µM) | relative viability (IPA-3 + Foretinib; first compound 2 µM) | relative viability (IPA-3 + Foretinib; first compound 6.325 µM) | relative viability (IPA-3 + Foretinib; first compound 20 µM) | relative viability (Doramapimod + Decitabine; first compound 0.02 µM) | relative viability (Doramapimod + Decitabine; first compound 0.06325 µM) | relative viability (Doramapimod + Decitabine; first compound 0.2 µM) | relative viability (Doramapimod + Decitabine; first compound 0.6325 µM) | relative viability (Doramapimod + Decitabine; first compound 2 µM) | relative viability (Doramapimod + Tozasertib; first compound 0.02 µM) | relative viability (Doramapimod + Tozasertib; first compound 0.06325 µM) | relative viability (Doramapimod + Tozasertib; first compound 0.2 µM) | relative viability (Doramapimod + Tozasertib; first compound 0.6325 µM) | relative viability (Doramapimod + Tozasertib; first compound 2 µM)
HCC-78 | 1.01 | 0.7 | 0.924 | 0.763 | 1.02 | 0.555 | 0.611 | 0.606 | 0.668 | 0.655 | 0.753 | 0.794 | 0.635 | 0.609 | 0.624 | 0.404 | 0.537 | 0.291 | 0.471 | 0.402
HCC-366 | 1.08 | 1.05 | 1.09 | 1.09 | 1.18 | 0.929 | 0.851 | 0.911 | 0.833 | 0.856 | 0.373 | 0.276 | 0.315 | 0.37 | 0.28 | 0.117 | 0.129 | 0.15 | 0.0878 | 0.0672
HCC-827 | 0.216 | 0.191 | 0.161 | 0.165 | 0.189 | 1.04 | 1.04 | 1.08 | 0.952 | 0.947 | 0.34 | 0.38 | 0.326 | 0.243 | 0.211 | 0.422 | 0.414 | 0.422 | 0.375 | 0.356
HOP-62 | 1.2 | 0.935 | 0.918 | 1.13 | 1.16 | 1.28 | 1.04 | 1.21 | 1.09 | 1.19 | 0.267 | 0.268 | 0.176 | 0.208 | 0.211 | 0.386 | 0.356 | 0.382 | 0.424 | 0.28
IA-LM | 1.07 | 0.8 | 0.755 | 0.578 | 0.725 | 1.24 | 0.989 | 1.16 | 1.05 | 1.23 |  |  |  |  |  |  |  |  |  | 
LC-2-ad | 1.04 | 1 | 1.04 | 0.961 | 1.09 | 0.986 | 0.934 | 0.832 | 0.938 | 1.03 | 0.828 | 0.776 | 0.793 | 0.854 | 0.768 | 0.447 | 0.444 | 0.448 | 0.413 | 0.484
LCLC-97TM1 | 1.14 | 1.03 | 1.13 | 0.938 | 0.937 | 0.958 | 0.928 | 0.915 | 0.861 | 0.958 | 0.197 | 0.208 | 0.242 | 0.236 | 0.235 | 0.22 | 0.228 | 0.21 | 0.266 | 0.142
LCLC-103H |  |  |  |  |  | 0.908 | 0.862 | 0.756 | 0.725 | 0.775 | 0.714 | 0.704 | 0.719 | 0.742 | 0.654 | 0.431 | 0.529 | 0.388 | 0.544 | 0.432
LK-2 | 1.13 | 0.877 | 0.959 | 0.9 | 0.821 | 1.25 | 1.31 | 1.3 | 1.63 | 1.5 | 0.294 | 0.288 | 0.25 | 0.232 | 0.266 | 0.186 | 0.182 | 0.18 | 0.179 | 0.192
LOU-NH91 | 0.745 | 0.799 | 0.74 | 0.77 | 0.789 | 0.955 | 0.861 | 0.942 | 0.916 | 1.07 | 0.858 | 0.806 | 0.84 | 0.849 | 0.711 | 0.715 | 0.66 | 0.798 | 0.76 | 0.488
NCI-H441 |  |  |  |  |  | 1.14 | 1.2 | 0.79 | 0.837 | 1 | 0.238 | 0.216 | 0.268 | 0.238 | 0.194 | 0.719 | 0.63 | 0.576 |  | 0.622
NCI-H522 |  |  |  |  |  |  |  |  |  |  | 0.751 | 0.7 | 0.626 | 0.683 | 0.577 | 0.501 | 0.489 | 0.579 | 0.59 | 0.471
NCI-H1299 | 0.966 | 0.936 | 0.944 | 0.894 | 0.91 | 1.1 | 1.07 | 1.17 | 0.678 | 1.06 |  |  |  |  |  |  |  |  |  | 
NCI-H1563 | 0.968 | 0.657 | 0.871 | 1.01 | 0.907 | 0.996 | 0.87 | 1.01 | 1.01 | 0.867 |  |  |  |  |  |  |  |  |  | 
NCI-H1623 |  |  |  |  |  | 0.97 | 0.899 | 0.878 | 0.815 | 0.923 |  |  |  |  |  | 0.424 | 0.426 | 0.411 | 0.46 | 0.318
NCI-H1648 |  |  |  |  |  |  |  |  |  |  | 0.465 | 0.544 | 0.452 | 0.402 | 0.389 | 0.442 | 0.498 | 0.58 | 0.353 | 0.481
NCI-H1703 | 1.17 | 1.05 | 0.861 | 0.961 | 1.35 | 0.295 | 0.339 | 0.331 | 0.349 | 0.391 |  |  |  |  |  |  |  |  |  | 
NCI-H1792 | 1.07 | 0.888 | 0.94 | 0.894 | 1.01 |  |  |  |  |  | 0.462 | 0.532 | 0.505 | 0.571 | 0.47 |  |  |  |  | 
NCI-H2228 | 1.87 | 1.39 | 1.24 | 0.825 | 1.18 | 0.979 | 0.805 | 0.842 | 1.07 | 1.22 |  |  |  |  |  | 0.263 | 0.296 | 0.258 | 0.263 | 0.242
NCI-H2342 |  |  |  |  |  | 1.11 | 1.04 | 1.15 | 1.19 | 1.3 | 0.653 | 0.807 | 0.686 | 0.673 | 0.74 | 0.494 | 0.508 | 0.554 | 0.584 | 0.621
SW 900 |  |  |  |  |  | 1.04 | 0.792 | 0.975 | 1.14 | 1.08 | 0.355 | 0.439 | 0.36 | 0.405 | 0.437 | 0.538 | 0.584 | 0.618 | 0.479 | 0.481
